Reference: patent US9828360B2 (Array BioPharma Inc., priority 2012, dated 2017)

Columns and labels:
AURKA = biological target: T1, AURKA (Homo sapiens, UniProt O14965); test: KinaseProfiler off-target kinase profiling; type: biochemical; details: 10 μM, ATP near Km
T1 construct: purchased Millipore, Inc. (KinaseProfiler service)
Experimental: (§1) A representative compound of the invention (Example 48) was tested for off-target kinase activity at a concentration of 10 μM by Millipore, Inc. in their KinaseProfiler™ service against all the kinases available in their full kinase panel. The compound was run in duplicate at a concentration of ATP near the Km for each individual kinase according to Millipore's specifications. The results are shown in Table B. Data are reported as percent of control (POC) and are the average of the two replicates.

BLK_m = biological target: T2, BLK_m (Mus musculus, UniProt P16277); test: KinaseProfiler off-target kinase profiling; type: biochemical; details: 10 μM, ATP near Km
T2 construct: purchased Millipore, Inc. (KinaseProfiler service)
T2 sequence (P16277 whole entry): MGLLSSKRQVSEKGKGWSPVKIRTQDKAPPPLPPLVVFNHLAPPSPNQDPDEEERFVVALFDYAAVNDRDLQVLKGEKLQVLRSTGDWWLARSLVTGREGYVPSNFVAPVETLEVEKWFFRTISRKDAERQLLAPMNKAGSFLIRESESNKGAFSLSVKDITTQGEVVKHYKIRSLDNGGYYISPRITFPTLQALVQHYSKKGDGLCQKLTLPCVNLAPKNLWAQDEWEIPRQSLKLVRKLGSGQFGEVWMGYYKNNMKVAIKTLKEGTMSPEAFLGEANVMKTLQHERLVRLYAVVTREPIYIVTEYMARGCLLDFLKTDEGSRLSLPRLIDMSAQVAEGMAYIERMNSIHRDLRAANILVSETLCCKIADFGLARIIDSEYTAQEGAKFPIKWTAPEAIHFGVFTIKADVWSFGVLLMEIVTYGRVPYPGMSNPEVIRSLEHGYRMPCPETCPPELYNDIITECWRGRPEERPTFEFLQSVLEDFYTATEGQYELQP
Experimental: as §1

CAMK4 = biological target: T3, CAMK4 (Homo sapiens, UniProt Q16566); test: KinaseProfiler off-target kinase profiling; type: biochemical; details: 10 μM, ATP near Km
T3 construct: purchased Millipore, Inc. (KinaseProfiler service)
Experimental: as §1

CDK2/cyclinA = biological target: T4, CDK2/cyclinA (Homo sapiens, UniProt P24941); test: KinaseProfiler off-target kinase profiling; type: biochemical; details: 10 μM, ATP near Km
T4 construct: purchased Millipore, Inc. (KinaseProfiler service)
Experimental: as §1

CDK2/cyclinE = biological target: T5, CDK2/cyclinE (Homo sapiens, UniProt P24941); test: KinaseProfiler off-target kinase profiling; type: biochemical; details: 10 μM, ATP near Km
T5 construct: purchased Millipore, Inc. (KinaseProfiler service)
Experimental: as §1

CDK9/cyclinT1 = biological target: T6, CDK9/cyclinT1 (Homo sapiens, UniProt P50750); test: KinaseProfiler off-target kinase profiling; type: biochemical; details: 10 μM, ATP near Km
T6 construct: purchased Millipore, Inc. (KinaseProfiler service)
T6 sequence (P50750 whole entry): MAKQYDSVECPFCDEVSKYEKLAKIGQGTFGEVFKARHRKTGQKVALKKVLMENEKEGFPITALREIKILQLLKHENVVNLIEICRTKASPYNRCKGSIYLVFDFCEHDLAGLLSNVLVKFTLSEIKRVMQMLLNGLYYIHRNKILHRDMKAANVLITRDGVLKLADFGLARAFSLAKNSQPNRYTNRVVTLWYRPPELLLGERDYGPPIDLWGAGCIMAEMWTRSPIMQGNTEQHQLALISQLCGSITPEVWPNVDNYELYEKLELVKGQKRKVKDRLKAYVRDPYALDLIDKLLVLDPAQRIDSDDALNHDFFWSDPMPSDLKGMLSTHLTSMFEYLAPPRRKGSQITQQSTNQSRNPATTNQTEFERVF
T6 sequence (O60563 whole entry partner): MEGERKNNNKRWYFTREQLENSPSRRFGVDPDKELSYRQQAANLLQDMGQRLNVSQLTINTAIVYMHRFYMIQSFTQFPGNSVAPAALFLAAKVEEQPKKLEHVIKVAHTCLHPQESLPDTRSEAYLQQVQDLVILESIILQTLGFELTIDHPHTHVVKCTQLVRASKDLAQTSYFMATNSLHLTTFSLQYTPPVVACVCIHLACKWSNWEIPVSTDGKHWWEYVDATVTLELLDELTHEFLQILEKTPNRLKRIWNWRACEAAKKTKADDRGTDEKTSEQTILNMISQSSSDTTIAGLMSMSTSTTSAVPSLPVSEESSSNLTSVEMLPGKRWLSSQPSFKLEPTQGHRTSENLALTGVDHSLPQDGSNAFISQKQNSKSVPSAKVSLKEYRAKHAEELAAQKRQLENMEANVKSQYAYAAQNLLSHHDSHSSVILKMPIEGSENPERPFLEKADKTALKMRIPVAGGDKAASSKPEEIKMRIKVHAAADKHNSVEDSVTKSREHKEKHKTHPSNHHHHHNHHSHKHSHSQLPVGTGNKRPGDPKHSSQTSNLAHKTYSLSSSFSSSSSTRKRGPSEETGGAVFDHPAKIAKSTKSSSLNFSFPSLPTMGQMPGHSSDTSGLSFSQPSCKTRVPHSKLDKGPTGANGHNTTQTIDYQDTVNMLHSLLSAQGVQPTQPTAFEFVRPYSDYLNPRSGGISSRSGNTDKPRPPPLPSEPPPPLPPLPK
Experimental: as §1

CK1_y = test: KinaseProfiler off-target kinase profiling; type: biochemical; details: 10 μM, ATP near Km
Experimental: as §1

CK1delta = biological target: T7, CK1delta (Homo sapiens, UniProt P48730); test: KinaseProfiler off-target kinase profiling; type: biochemical; details: 10 μM, ATP near Km
T7 construct: purchased Millipore, Inc. (KinaseProfiler service)
T7 sequence (P48730 whole entry): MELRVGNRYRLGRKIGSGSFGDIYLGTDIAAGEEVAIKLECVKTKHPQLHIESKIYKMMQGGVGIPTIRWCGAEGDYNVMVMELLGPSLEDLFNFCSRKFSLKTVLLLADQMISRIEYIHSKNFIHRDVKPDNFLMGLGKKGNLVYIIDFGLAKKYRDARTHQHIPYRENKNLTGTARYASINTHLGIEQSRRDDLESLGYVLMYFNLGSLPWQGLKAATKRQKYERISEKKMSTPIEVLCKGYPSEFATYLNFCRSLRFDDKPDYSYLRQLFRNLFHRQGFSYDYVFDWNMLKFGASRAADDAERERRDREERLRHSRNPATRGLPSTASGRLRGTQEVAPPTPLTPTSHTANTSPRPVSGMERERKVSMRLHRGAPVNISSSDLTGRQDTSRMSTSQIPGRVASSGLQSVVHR
Experimental: as §1

CLK3 = biological target: T8, CLK3 (Homo sapiens, UniProt P49761); test: KinaseProfiler off-target kinase profiling; type: biochemical; details: 10 μM, ATP near Km
T8 construct: purchased Millipore, Inc. (KinaseProfiler service)
T8 sequence (P49761 whole entry): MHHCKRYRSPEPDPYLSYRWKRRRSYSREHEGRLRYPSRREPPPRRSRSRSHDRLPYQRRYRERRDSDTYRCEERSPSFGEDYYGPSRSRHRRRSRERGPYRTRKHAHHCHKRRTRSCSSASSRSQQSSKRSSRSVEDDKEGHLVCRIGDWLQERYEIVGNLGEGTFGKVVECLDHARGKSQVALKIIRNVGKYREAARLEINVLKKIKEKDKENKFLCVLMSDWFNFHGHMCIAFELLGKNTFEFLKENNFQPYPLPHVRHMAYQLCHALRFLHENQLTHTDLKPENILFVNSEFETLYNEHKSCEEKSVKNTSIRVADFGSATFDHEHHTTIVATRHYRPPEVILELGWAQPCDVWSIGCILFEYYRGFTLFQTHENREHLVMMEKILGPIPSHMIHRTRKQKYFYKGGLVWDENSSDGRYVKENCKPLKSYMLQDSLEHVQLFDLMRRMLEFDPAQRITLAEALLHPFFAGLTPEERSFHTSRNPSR
Experimental: as §1

FAK = biological target: T9, FAK (Homo sapiens, UniProt Q05397); test: KinaseProfiler off-target kinase profiling; type: biochemical; details: 10 μM, ATP near Km
T9 construct: purchased Millipore, Inc. (KinaseProfiler service)
Experimental: as §1

FGFR1 = biological target: T10, FGFR1 (Homo sapiens, UniProt P11362); test: KinaseProfiler off-target kinase profiling; type: biochemical; details: 10 μM, ATP near Km
T10 construct: purchased Millipore, Inc. (KinaseProfiler service)
Experimental: as §1

GSK3beta = biological target: T11, GSK3beta (Homo sapiens, UniProt P49841); test: KinaseProfiler off-target kinase profiling; type: biochemical; details: 10 μM, ATP near Km
T11 construct: purchased Millipore, Inc. (KinaseProfiler service)
T11 sequence (P49841 whole entry): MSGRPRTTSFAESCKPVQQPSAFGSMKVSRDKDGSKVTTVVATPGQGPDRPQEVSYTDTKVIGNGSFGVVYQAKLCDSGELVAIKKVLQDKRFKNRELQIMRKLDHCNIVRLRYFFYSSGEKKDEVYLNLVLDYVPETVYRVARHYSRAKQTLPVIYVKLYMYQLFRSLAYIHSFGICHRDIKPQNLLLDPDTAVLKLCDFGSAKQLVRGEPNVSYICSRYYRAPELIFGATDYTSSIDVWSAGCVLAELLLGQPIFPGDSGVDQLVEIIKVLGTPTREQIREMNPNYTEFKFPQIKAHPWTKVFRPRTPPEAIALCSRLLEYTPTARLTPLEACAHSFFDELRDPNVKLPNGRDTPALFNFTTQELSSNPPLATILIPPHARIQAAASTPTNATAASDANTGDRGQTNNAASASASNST
Experimental: as §1

IKKbeta = biological target: T12, IKKbeta (Homo sapiens, UniProt O14920); test: KinaseProfiler off-target kinase profiling; type: biochemical; details: 10 μM, ATP near Km
T12 construct: purchased Millipore, Inc. (KinaseProfiler service)
T12 sequence (O14920 whole entry): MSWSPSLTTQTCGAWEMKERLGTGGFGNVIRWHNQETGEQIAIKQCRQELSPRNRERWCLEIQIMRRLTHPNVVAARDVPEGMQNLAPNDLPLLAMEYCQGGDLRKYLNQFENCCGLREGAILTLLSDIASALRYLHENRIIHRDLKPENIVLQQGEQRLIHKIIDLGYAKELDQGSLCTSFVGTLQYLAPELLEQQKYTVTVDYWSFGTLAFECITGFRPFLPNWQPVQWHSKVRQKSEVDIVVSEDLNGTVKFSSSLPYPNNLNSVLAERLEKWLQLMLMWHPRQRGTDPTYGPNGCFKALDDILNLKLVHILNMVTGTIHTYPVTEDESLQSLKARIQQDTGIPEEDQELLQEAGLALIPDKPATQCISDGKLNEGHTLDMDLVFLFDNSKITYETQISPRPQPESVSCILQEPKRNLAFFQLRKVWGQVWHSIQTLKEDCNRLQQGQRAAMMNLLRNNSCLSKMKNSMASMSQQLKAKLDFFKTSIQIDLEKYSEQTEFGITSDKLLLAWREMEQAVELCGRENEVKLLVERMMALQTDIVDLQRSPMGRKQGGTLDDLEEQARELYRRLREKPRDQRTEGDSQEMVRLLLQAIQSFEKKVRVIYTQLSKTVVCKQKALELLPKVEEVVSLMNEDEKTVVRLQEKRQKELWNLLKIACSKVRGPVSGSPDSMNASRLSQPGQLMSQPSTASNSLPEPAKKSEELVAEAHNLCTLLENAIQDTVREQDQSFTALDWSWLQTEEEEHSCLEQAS
Experimental: as §1

IR = biological target: T13, IR (Homo sapiens, UniProt P06213); test: KinaseProfiler off-target kinase profiling; type: biochemical; details: 10 μM, ATP near Km
T13 construct: purchased Millipore, Inc. (KinaseProfiler service)
Experimental: as §1

IRR = biological target: T14, IRR (Homo sapiens, UniProt P14616); test: KinaseProfiler off-target kinase profiling; type: biochemical; details: 10 μM, ATP near Km
T14 construct: purchased Millipore, Inc. (KinaseProfiler service)
Experimental: as §1

KDR = biological target: T15, KDR (Homo sapiens, UniProt P35968); test: KinaseProfiler off-target kinase profiling; type: biochemical; details: 10 μM, ATP near Km
T15 construct: purchased Millipore, Inc. (KinaseProfiler service)
Experimental: as §1

LOK = biological target: T16, LOK (Homo sapiens, UniProt O94804); test: KinaseProfiler off-target kinase profiling; type: biochemical; details: 10 μM, ATP near Km
T16 construct: purchased Millipore, Inc. (KinaseProfiler service)
Experimental: as §1

MARK2 = biological target: T17, MARK2 (Homo sapiens, UniProt Q7KZI7); test: KinaseProfiler off-target kinase profiling; type: biochemical; details: 10 μM, ATP near Km
T17 construct: purchased Millipore, Inc. (KinaseProfiler service)
Experimental: as §1

MELK = biological target: T18, MELK (Homo sapiens, UniProt Q14680); test: KinaseProfiler off-target kinase profiling; type: biochemical; details: 10 μM, ATP near Km
T18 construct: purchased Millipore, Inc. (KinaseProfiler service)
Experimental: as §1

MKK4_m = biological target: T19, MKK4_m (Mus musculus, UniProt P47809); test: KinaseProfiler off-target kinase profiling; type: biochemical; details: 10 μM, ATP near Km
T19 construct: purchased Millipore, Inc. (KinaseProfiler service)
Experimental: as §1

MSSK1 = biological target: T20, MSSK1 (Homo sapiens, UniProt Q9UPE1); test: KinaseProfiler off-target kinase profiling; type: biochemical; details: 10 μM, ATP near Km
T20 construct: purchased Millipore, Inc. (KinaseProfiler service)
Experimental: as §1

MST2 = biological target: T21, MST2 (Homo sapiens, UniProt Q13188); test: KinaseProfiler off-target kinase profiling; type: biochemical; details: 10 μM, ATP near Km
T21 construct: purchased Millipore, Inc. (KinaseProfiler service)
T21 sequence (Q13188 whole entry): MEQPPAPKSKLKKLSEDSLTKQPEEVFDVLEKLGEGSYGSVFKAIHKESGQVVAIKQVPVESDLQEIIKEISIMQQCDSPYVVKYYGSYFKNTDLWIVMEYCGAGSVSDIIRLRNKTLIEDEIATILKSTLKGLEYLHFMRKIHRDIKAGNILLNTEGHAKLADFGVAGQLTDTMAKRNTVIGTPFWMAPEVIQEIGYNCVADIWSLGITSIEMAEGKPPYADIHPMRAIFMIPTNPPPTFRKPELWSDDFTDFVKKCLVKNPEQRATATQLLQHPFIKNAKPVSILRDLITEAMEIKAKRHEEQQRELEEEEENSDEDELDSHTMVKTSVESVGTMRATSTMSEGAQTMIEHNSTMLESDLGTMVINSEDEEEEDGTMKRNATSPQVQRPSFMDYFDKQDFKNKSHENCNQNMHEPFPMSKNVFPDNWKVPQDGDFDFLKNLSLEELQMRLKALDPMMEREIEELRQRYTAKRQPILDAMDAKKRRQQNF
Experimental: as §1

PDGFRalpha = biological target: T22, PDGFRalpha (Homo sapiens, UniProt P16234); test: KinaseProfiler off-target kinase profiling; type: biochemical; details: 10 μM, ATP near Km
T22 construct: purchased Millipore, Inc. (KinaseProfiler service)
Experimental: as §1

PKCepsilon = biological target: T23, PKCepsilon (Homo sapiens, UniProt Q02156); test: KinaseProfiler off-target kinase profiling; type: biochemical; details: 10 μM, ATP near Km
T23 construct: purchased Millipore, Inc. (KinaseProfiler service)
Experimental: as §1

PRKG1beta = biological target: T24, PRKG1beta (Homo sapiens, UniProt Q13976); test: KinaseProfiler off-target kinase profiling; type: biochemical; details: 10 μM, ATP near Km
T24 construct: purchased Millipore, Inc. (KinaseProfiler service)
Experimental: as §1

PTK5 = biological target: T25, PTK5 (Homo sapiens, UniProt P42685); test: KinaseProfiler off-target kinase profiling; type: biochemical; details: 10 μM, ATP near Km
T25 construct: purchased Millipore, Inc. (KinaseProfiler service)
Experimental: as §1

PrKX = biological target: T26, PrKX (Homo sapiens, UniProt P51817); test: KinaseProfiler off-target kinase profiling; type: biochemical; details: 10 μM, ATP near Km
T26 construct: purchased Millipore, Inc. (KinaseProfiler service)
Experimental: as §1

Rsk2 = biological target: T27, Rsk2 (Homo sapiens, UniProt P51812); test: KinaseProfiler off-target kinase profiling; type: biochemical; details: 10 μM, ATP near Km
T27 construct: purchased Millipore, Inc. (KinaseProfiler service)
Experimental: as §1

SGK2 = biological target: T28, SGK2 (Homo sapiens, UniProt Q9HBY8); test: KinaseProfiler off-target kinase profiling; type: biochemical; details: 10 μM, ATP near Km
T28 construct: purchased Millipore, Inc. (KinaseProfiler service)
Experimental: as §1

p38alpha = biological target: T29, p38alpha (Homo sapiens, UniProt Q16539); test: KinaseProfiler off-target kinase profiling; type: biochemical; details: 10 μM, ATP near Km
T29 construct: purchased Millipore, Inc. (KinaseProfiler service)
T29 sequence (Q16539 whole entry): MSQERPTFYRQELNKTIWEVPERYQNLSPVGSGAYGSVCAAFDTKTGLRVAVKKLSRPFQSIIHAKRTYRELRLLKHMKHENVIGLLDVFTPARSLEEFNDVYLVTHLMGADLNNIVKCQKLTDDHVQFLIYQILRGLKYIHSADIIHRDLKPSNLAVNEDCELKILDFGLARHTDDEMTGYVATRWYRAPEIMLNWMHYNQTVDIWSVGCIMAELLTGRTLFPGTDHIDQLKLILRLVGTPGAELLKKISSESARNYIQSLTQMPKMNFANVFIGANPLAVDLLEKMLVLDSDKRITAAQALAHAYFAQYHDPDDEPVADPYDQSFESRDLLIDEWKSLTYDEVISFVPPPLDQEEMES
Experimental: as §1

TrkA [1] = biological target: T30, TrkA (Homo sapiens, UniProt P04629); test: KinaseProfiler off-target kinase profiling; type: biochemical; parameters: purchased Millipore, Inc. (KinaseProfiler service); details: 10 μM, ATP near Km
Experimental: as §1

TrkA [2] = biological target: T30, TrkA; test: TrkA LanthaScreen Eu Kinase Binding Assay; parameters: 6HIS tagged cytoplasmic domain from Invitrogen, Cat. No. PV3144; purchased Invitrogen PV3144; details: averaged IC50 values, read-out: TrkA Enzyme IC50
Target sequence in this assay (P04629 440-796 limits assumed): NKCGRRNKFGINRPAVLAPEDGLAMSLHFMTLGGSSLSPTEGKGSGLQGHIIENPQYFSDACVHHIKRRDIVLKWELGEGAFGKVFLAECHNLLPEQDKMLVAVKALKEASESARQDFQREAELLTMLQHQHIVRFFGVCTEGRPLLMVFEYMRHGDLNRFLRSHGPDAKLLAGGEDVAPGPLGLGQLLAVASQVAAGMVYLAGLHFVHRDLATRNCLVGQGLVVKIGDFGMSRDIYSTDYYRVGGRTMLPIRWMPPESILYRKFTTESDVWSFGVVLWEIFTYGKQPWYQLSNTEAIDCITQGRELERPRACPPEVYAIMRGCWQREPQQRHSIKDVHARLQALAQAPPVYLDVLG

COCCN1C[C@@H](NC(=O)Nc2sc(C(C)C)nc2-c2ccccc2)[C@H](c2ccccc2)C1 [Example 48, 1-(2-isopropyl-4-phenylthiazol-5-yl)-3-((3S,4R)-1-(2-methoxyethyl)-4-phenylpyrrolidin-3-yl)urea]
Avg POC (AURKA): 133% of control
Avg POC (BLK_m): 107% of control
Avg POC (CAMK4): 101.5% of control
Avg POC (CDK2/cyclinA): 110% of control
Avg POC (CDK2/cyclinE): 113% of control
Avg POC (CDK9/cyclinT1): 111.5% of control
Avg POC (CK1_y): 106% of control
Avg POC (CK1delta): 111.5% of control
Avg POC (CLK3): 101.5% of control
Avg POC (FAK): 107.5% of control
Avg POC (FGFR1): 98% of control
Avg POC (GSK3beta): 63% of control
Avg POC (IKKbeta): 96% of control
Avg POC (IR): 102% of control
Avg POC (IRR): 110.5% of control
Avg POC (KDR): 104% of control
Avg POC (LOK): 107.5% of control
Avg POC (MARK2): 93% of control
Avg POC (MELK): 89% of control
Avg POC (MKK4_m): 122% of control
Avg POC (MSSK1): 94% of control
Avg POC (MST2): 109.5% of control
Avg POC (PDGFRalpha): 104.5% of control
Avg POC (PKCepsilon): 103.5% of control
Avg POC (PRKG1beta): 105% of control
Avg POC (PTK5): 107.5% of control
Avg POC (PrKX): 122% of control
Avg POC (Rsk2): 134% of control
Avg POC (SGK2): 121.5% of control
Avg POC (p38alpha): 108% of control
Avg POC (TrkA [1]): 2.5% of control
IC50 (TrkA [2]): < 100 nM
